Source: ChEMBL document CHEMBL1158345, “Fragment and knowledge-based design of selective GSK-3beta inhibitors using virtual screening models” (Eur J Med Chem, 2009)

The molecules below were run against Glycogen synthase kinase-3 beta (Homo sapiens, UniProt P49841).
Glycogen synthase kinase-3 beta, sequence (P49841 whole entry): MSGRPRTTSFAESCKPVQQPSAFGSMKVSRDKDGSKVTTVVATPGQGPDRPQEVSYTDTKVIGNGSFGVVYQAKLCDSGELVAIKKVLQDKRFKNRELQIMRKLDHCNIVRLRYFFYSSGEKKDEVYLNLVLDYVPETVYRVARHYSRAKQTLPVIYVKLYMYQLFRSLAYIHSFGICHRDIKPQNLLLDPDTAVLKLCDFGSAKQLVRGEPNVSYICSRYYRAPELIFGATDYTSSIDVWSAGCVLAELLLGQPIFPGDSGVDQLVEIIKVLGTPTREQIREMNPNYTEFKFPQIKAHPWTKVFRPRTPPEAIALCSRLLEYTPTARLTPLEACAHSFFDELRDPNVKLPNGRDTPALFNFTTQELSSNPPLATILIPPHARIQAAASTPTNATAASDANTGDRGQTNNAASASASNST
Description: Inhibition of human GSK3-beta
With `O=[N+]([O-])c1ccc(NCCNc2ncc(-c3ncc[nH]3)c(-c3ccc(Cl)cc3Cl)n2)nc1` the Ki was 0.09 nM. `Nc1nc(Nc2ccccc2)sc1C(=O)C1CC1` showed an IC50 of 2400 nM. With `Cn1cc(-c2cc(-c3nc4ccccc4[nH]3)c(=O)[nH]n2)ccc1=O` the IC50 was 160 nM. With `Cn1cc(C2=C(c3cc(Cl)ccc3Cl)C(=O)NC2=O)c2ccccc21` the IC50 was 7 nM. `COc1cc(C2=C(c3cn(CCN4CCN(C)CC4)c4ccccc34)C(=O)NC2=O)c2occc2c1` showed an IC50 of 0.14 nM. For `Cn1cc(C2=C(c3cn(CCCSC(=N)N)c4ccccc34)C(=O)NC2=O)c2ccccc21` [BISINDOLYLMALEIMIDE IX], the IC50 was 2.8 nM.
